Laboratory results from ChEMBL document CHEMBL5034019, “Discovery of the Next-Generation Pan-TRK Kinase Inhibitors for the Treatment of Cancer” (J Med Chem, 2021).

Columns and labels:
[1] = target: Cytochrome P450 2C9 (Homo sapiens, UniProt P11712); test: Inhibition of CYP2C9 in human pooled liver microsomes using diclofenac as substrate in presence of NADPH by LC-MS/MS analysis; assay type: ADME
[2] = tested on: BaF3; test: cells; settings: Mus musculus
Description: Cytotoxicity against mouse BaF3 cells transfected with TrKA assessed as reduction in cell viability by MTT assay

[3] = Metabolic stability in human liver microsomes assessed as intrinsic clearance at 1 uM by LC-MS/MS analysis; assay type: ADME, Microsome; settings: read-out: CLH
[4] = tested on: BaF3; test: Cytotoxicity against mouse BaF3 cells transfected with TrKA G595R mutant assessed as reduction in cell viability by MTT assay; assay type: functional, cell-based
[5] = Protein binding in mouse plasma assessed as unbound fraction by LC-MS/MS based equilibrium dialysis method; assay type: ADME, cell-free
[6] = Toxicity in […] xenografted with mouse BaF3 cells transfected with LMNA-NTRK1-G595R mutant assessed as death at 100 mg/kg, po administered once daily for 21 days and measured twice weekly; assay type: organism-based; settings: in vivo, 504 h, time 21 day
[7] = target: Cytochrome P450 2D6 (Homo sapiens, UniProt P10635); test: Inhibition of CYP2D6 in human pooled liver microsomes using dextromethorphan as substrate in presence of NADPH by LC-MS/MS analysis; assay type: ADME
[8] = tested on: BaF3; test: Cytotoxicity against mouse BaF3 cells transfected with TrKA F589L mutant assessed as reduction in cell viability by MTT assay; assay type: functional, cell-based
[9] = Protein binding in human plasma assessed as unbound fraction by LC-MS/MS based equilibrium dialysis method; assay type: ADME, cell-free
[10] = Metabolic stability in rat liver microsomes assessed as intrinsic clearance at 1 uM by LC-MS/MS analysis; assay type: ADME, Microsome; settings: read-out: CLH
[11] = Metabolic stability in dog liver microsomes assessed as intrinsic clearance at 1 uM by LC-MS/MS analysis; assay type: ADME, Canis lupus familiaris, Microsome; settings: read-out: CLH
[12] = tested on: BaF3; test: Cytotoxicity against mouse BaF3 cells transfected with SLC34A2-Ros1 assessed as reduction in cell viability by MTT assay; assay type: functional, cell-based
[13] = tested on: BaF3; test: Cytotoxicity against mouse BaF3 cells transfected with TrKA G667A mutant assessed as reduction in cell viability by MTT assay; assay type: functional, cell-based
[14] = Protein binding in dog plasma assessed as unbound fraction by LC-MS/MS based equilibrium dialysis method; assay type: ADME, cell-free, Canis lupus familiaris
[15] = Protein binding in rat plasma assessed as unbound fraction by LC-MS/MS based equilibrium dialysis method; assay type: ADME, cell-free
[16] = Apparent permeability across apical to basolateral side in human Caco-2 cells incubated for 2 hrs by LC-MS/MS analysis; assay type: ADME, cell-based
[17] = target: Cytochrome P450 2C19 (Homo sapiens, UniProt P33261); test: Inhibition of CYP2C19 in human pooled liver microsomes using S-mephenytoin as substrate in presence of NADPH by LC-MS/MS analysis; assay type: ADME
[18] = Toxicity in mouse xenografted with mouse BaF3 cells transfected with LMNA-NTRK1-G595R mutant assessed as unkempt appearance at 100 mg/kg, po administered once daily for 21 days and measured twice weekly; settings: in vivo, 504 h
[19] = target: T1, Cytochrome P450 1A2 (Homo sapiens, UniProt P05177); test: Inhibition of CYP1A2 in human pooled liver microsomes using phenacetin as substrate in presence of NADPH by LC-MS/MS analysis; assay type: ADME
T1 sequence (P05177 whole entry): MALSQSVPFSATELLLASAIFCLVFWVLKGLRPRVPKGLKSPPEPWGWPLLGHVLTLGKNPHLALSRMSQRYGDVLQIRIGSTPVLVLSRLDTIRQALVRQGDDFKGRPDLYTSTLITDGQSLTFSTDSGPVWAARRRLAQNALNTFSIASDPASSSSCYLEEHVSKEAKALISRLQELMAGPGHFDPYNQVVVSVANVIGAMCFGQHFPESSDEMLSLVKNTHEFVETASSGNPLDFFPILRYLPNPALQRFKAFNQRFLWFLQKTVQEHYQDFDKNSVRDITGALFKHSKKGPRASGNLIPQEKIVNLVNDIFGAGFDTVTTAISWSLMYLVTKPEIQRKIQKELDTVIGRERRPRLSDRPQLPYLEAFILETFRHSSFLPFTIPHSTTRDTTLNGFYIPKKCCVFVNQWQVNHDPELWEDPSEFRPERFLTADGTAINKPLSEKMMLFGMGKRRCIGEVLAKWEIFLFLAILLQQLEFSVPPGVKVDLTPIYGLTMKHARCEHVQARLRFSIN

[20] = Metabolic stability in mouse liver microsomes assessed as intrinsic clearance at 1 uM by LC-MS/MS analysis; assay type: ADME, Microsome; settings: read-out: CLH
[21] = tested on: BaF3; test: Cytotoxicity against mouse BaF3 cells transfected with TrKA G623R mutant assessed as reduction in cell viability by MTT assay; assay type: functional, cell-based
[22] = Half life in Sprague-Dawley rat at 3 mg/kg measured up to 24 hrs by LC-MS/MS analysis; assay type: ADME, organism-based; settings: in vivo
[23] = target: Cytochrome P450 3A4 (Homo sapiens, UniProt P08684); test: Inhibition of CYP3A4 in human pooled liver microsomes using midazolam and testosterone as substrate in presence of NADPH by LC-MS/MS analysis; assay type: ADME
[24] = target: Epidermal growth factor receptor (Homo sapiens) (UniProt P00533); test: Inhibition of recombinant human EGFR (696 to end residues) assessed as residual activity at 0.5 uM using poly(Glu, Tyr) 4:1 as substrate at 40 mins in presence of [gamma-33ATP] by scintillation counting based radiometry assay relative to control
[25] = tested on: Tyrosine-protein kinase Blk (Homo sapiens), P51451 [UNDEFINED MUTATION]; test: Inhibition of full-length recombinant human BLK M287V mutant assessed as residual activity at 0.5 uM using poly(Glu, Tyr) 4:1 as substrate measured after 40 mins in presence of [gamma33P]ATP by scintillation counting method relative to control
[26] = tested on: Proto-oncogene tyrosine-protein kinase receptor Ret (Homo sapiens), P07949 [V804M]; test: Inhibition of recombinant human Ret V804M mutant (658 to end residues) assessed as residual activity at 0.5 uM using […] as substrate incubated for 40 mins in presence of [gamma33P]ATP by scintillation counting based radiometry assay relative to control
[27] = target: Proto-oncogene tyrosine-protein kinase receptor Ret (Homo sapiens) (UniProt P07949); test: Inhibition of recombinant human Ret (658 to end residues) assessed as residual activity at 0.5 uM using KKKSPGEYVNIEFG as substrate incubated for 40 mins in presence of [gamma33P]ATP by scintillation counting based radiometry assay relative to control
[28] = tested on: RAF proto-oncogene serine/threonine-protein kinase (Homo sapiens), P04049 [Y340D,Y341D]; test: Inhibition of recombinant human C-Raf Y340D/Y341D double mutant (306 to end residues) assessed as residual activity at 0.5 uM poly(Glu, Tyr) 4:1 as substrate incubated 40 mins in presence of [gamma-33ATP] by scintillation counting based radiometry assay relative to control

Chain of Cytochrome P450 2C19 (P33261 whole entry): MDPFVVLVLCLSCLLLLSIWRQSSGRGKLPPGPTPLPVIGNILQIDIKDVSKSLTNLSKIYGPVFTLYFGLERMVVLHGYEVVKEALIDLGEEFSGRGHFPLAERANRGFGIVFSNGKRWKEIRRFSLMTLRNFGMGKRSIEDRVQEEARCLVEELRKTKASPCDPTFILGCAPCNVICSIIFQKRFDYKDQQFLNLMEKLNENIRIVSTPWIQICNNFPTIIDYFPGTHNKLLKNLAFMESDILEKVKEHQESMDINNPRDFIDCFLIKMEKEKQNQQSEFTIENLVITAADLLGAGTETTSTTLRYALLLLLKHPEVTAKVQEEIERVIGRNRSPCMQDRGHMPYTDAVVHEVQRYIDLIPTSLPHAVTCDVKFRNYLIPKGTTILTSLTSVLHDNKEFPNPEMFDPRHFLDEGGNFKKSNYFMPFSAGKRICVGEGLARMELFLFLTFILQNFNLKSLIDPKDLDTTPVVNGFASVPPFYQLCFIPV
Chain of Cytochrome P450 2D6 (P10635 whole entry): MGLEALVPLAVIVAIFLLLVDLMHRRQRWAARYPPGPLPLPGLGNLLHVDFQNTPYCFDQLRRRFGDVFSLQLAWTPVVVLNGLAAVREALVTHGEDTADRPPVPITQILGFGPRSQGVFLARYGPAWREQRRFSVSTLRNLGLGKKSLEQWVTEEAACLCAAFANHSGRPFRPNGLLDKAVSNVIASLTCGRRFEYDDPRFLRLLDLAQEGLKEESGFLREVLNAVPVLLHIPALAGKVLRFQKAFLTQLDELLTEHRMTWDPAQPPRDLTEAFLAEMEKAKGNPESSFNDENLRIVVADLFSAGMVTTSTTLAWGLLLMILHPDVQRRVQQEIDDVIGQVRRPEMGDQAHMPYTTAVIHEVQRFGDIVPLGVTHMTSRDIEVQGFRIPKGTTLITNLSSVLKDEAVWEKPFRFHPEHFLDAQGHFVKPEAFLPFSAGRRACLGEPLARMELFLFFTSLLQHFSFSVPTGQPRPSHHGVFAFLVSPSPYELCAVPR
Chain of Cytochrome P450 3A4 (P08684 whole entry): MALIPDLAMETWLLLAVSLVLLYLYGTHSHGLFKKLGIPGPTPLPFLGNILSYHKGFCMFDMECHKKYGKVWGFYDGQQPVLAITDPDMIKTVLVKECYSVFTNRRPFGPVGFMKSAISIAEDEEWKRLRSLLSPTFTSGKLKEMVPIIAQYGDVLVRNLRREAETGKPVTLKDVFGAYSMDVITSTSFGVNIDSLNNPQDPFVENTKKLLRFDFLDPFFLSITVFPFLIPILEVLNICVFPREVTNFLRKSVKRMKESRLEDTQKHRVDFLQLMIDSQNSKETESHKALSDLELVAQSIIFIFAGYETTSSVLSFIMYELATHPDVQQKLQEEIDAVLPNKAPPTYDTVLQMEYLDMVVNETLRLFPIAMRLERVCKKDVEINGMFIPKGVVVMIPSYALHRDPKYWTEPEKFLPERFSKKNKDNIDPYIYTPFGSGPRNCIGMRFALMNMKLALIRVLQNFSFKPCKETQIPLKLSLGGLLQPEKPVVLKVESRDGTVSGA
Chain of Cytochrome P450 2C9 (P11712 whole entry): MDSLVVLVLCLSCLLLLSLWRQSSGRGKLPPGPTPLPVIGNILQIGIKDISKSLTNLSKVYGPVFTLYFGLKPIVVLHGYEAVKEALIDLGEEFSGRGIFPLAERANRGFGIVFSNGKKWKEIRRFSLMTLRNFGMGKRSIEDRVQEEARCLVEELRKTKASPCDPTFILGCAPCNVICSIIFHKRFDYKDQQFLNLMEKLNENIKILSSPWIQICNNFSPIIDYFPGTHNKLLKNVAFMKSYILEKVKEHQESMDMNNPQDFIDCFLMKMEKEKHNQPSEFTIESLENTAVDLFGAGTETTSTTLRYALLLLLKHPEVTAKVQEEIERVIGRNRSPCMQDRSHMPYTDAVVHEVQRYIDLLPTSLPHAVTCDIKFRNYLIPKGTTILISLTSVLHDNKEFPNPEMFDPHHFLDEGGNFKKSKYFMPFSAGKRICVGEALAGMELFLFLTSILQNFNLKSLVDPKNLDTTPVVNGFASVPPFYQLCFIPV
Chain of Epidermal growth factor receptor (Homo sapiens) (P00533 whole entry): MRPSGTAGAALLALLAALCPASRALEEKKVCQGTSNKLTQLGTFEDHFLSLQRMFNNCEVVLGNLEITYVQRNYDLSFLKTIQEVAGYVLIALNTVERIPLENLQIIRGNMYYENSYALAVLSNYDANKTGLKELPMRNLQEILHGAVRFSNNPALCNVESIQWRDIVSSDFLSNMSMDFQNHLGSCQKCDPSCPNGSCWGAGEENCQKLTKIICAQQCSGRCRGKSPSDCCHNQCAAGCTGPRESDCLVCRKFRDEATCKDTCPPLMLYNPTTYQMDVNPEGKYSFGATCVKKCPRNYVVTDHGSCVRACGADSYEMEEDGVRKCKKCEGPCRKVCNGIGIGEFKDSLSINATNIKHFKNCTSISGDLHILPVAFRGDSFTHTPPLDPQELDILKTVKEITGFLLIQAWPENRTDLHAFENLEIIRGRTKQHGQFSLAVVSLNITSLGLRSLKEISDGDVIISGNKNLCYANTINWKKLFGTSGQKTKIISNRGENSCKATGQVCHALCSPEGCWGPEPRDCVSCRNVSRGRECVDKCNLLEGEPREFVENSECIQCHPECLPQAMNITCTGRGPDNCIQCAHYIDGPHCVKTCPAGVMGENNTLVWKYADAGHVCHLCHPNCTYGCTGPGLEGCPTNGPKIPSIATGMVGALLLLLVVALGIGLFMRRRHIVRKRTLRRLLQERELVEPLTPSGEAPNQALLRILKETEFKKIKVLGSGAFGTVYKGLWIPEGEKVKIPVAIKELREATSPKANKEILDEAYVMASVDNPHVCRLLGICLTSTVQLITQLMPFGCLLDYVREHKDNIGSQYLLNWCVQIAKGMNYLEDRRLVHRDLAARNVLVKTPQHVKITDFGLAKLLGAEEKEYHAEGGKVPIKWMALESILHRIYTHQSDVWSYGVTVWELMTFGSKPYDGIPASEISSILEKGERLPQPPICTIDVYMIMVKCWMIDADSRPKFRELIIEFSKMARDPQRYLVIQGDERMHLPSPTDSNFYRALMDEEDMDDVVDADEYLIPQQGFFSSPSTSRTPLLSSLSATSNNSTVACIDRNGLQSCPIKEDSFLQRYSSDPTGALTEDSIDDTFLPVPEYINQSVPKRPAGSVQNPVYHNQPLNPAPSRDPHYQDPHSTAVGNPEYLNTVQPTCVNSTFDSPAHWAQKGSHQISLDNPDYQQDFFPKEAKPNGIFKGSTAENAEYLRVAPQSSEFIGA
Chain of Tyrosine-protein kinase Blk (Homo sapiens), P51451 [UNDEFINED MUTATION] (P51451 whole entry, looked up, stated change not applied): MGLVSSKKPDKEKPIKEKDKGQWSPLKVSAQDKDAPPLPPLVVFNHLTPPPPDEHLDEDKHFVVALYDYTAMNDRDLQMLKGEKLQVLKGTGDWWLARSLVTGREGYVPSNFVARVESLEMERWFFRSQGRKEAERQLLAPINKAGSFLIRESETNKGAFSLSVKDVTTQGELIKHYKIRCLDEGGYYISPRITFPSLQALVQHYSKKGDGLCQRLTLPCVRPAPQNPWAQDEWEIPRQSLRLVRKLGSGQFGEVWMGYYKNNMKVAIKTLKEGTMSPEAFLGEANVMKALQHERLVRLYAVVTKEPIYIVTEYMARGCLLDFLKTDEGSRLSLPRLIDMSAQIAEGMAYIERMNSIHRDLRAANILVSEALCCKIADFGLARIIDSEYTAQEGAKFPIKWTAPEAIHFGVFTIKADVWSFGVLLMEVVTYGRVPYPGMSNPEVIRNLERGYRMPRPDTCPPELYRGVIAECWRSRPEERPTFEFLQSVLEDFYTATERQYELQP
Chain of Proto-oncogene tyrosine-protein kinase receptor Ret (Homo sapiens), P07949 [V804M] (P07949 whole entry V804M): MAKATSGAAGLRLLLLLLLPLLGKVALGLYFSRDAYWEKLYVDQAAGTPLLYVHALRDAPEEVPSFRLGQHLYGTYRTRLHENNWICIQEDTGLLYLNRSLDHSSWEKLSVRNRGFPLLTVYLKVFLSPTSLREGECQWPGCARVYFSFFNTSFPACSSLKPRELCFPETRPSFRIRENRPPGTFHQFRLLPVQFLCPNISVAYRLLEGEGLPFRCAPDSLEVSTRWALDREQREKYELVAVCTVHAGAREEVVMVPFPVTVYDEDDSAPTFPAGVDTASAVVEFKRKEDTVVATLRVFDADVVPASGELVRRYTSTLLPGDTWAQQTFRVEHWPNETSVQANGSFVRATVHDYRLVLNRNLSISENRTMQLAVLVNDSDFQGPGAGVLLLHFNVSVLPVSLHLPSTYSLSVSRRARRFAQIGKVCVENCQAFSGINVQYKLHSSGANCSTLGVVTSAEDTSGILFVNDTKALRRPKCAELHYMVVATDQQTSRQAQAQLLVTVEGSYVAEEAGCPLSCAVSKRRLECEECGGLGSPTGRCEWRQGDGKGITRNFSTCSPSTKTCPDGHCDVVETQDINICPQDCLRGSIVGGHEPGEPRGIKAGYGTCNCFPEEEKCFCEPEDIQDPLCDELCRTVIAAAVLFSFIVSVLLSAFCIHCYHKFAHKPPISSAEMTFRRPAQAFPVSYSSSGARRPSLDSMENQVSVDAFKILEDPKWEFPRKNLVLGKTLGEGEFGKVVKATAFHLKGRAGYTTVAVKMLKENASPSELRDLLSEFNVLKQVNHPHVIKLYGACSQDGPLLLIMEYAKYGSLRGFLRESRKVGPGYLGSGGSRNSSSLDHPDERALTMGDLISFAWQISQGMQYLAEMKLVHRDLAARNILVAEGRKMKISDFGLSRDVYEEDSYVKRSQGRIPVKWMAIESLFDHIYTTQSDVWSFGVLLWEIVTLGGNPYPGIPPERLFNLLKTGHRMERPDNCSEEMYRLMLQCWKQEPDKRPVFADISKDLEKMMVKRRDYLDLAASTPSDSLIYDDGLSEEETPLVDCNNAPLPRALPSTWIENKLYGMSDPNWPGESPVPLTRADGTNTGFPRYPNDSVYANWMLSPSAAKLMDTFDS
Chain of Proto-oncogene tyrosine-protein kinase receptor Ret (Homo sapiens) (P07949 whole entry): as the sequence (P07949 whole entry V804M) above, with M804V counted along it

Compound | IC50 [1] [nM] | IC50 [2] [nM] | CLint scaled at 1 µM [3] [mL/min/kg] | IC50 [4] [nM] | fraction unbound [5] | IC50 [7] [nM] | IC50 [8] [nM] | fraction unbound [9] | CLint scaled at 1 µM [10] [mL/min/kg] | CLint scaled at 1 µM [11] [mL/min/kg] | IC50 [12] [nM] | IC50 [13] [nM] | fraction unbound [14] | fraction unbound [15] | Papp A→B at 2 h [16] [×10⁻⁶ cm/s] | IC50 [17] [nM] | IC50 [19] [nM] | CLint scaled at 1 µM [20] [mL/min/kg] | IC50 [21] [nM] | IC50 [23] [nM] | also measured
C[C@@H]1CCc2ncc(F)cc2[C@H]2CCCN2c2ccn3ncc(c3n2)C(=O)N1 [SELITRECTINIB] | > 50000 | 4.9 | 76 | 6.8 | 0.02 | > 50000 | 25.4 | 0.34 | 92 | 38 | 36.7 | 24.4 | 0.2 | 0.03 | 8.4 | > 50000 | > 50000 | 1350 | 2.7 | > 50000 | Activity [6]: Toxic; Activity [18]: Toxic; half-life [22]: 1.2 h
O=C1NC2(CC2)COc2ncc(F)cc2[C@H]2COCCN2c2ccn3ncc1c3n2 | 18100 | 0.6 | 17.7 | 7.7 | 0.11 | > 100000 | 4.9 | 0.16 | 28.8 | < 10.7 | 2.3 | 0.8 | 0.21 | 0.12 | 12 | 89000 | > 100000 | 1500 | 2.7 | > 50000 | Activity [24]: 108%; Activity [25]: 46%; Activity [26]: 54%; Activity [27]: 64%; Activity [28]: 103%
